For 3 compounds, IC50 and melting point results are on record in patent US6350885B1, “Tricyclic heteroaromatics and their derivatives as inhibitors of matrix metalloproteinases” (Warner-Lambert Company, priority 1998, dated 2002).

Data set [1] has as its target T1, MMP-13CD (collagenase-3 catalytic domain) (Homo sapiens, UniProt P45452).
T1 construct: MMP-13CD (collagenase-3 catalytic domain); made in house; host or cells: Escherichia coli
Put plainly: MMP inhibition, thiopeptolide substrate assay. To be noted: thiopeptolide substrate Ac-Pro-Leu-Gly-thioester-Leu-Leu-Gly-OEt; catalytic domain expressed in Escherichia coli from a synthetic gene. The class given is biochemical. The protocol: (§1) Experiments were carried out with the full-length and catalytic domains of the proteinases. […] IC50 values were determined using a thiopeptolide substrate, Ac-Pro-Leu-Gly-thioester-Leu-Leu-Gly-OEt (Ye Q.-Z., Johnson L. L., Hupe D. J., and Baragi V., “Purification and Characterization of the Human Stromelysin Catalytic Domain Expressed in Escherichia coli,” Biochemistry, 1992;31:11231-11235; Ye Q.-Z., Johnson L. L., Yu A. E., and Hupe D., “Reconstructed 19 kDa catalytic domain of gelatinase A is an active proteinase,” Biochemistry, 1995;34:4702-4708.) MMP-13CD was expressed from a synthetic gene and purified from Escherichia coli cell culture according to a previously described method (Ye Q.-Z., Johnson L. L., and Baragi V., “Gene synthesis and expression in E. coli for PUMP, a human matrix metalloproteinase,” Biochemical and Biophysical Research Communications, 1992; 186:143-149).

The target of data set [2] is T2, MMP-14CD (membrane-type MMP-1) (Homo sapiens, UniProt P50281).
T2 construct: Experiments were carried out with the full-length and catalytic domains of the proteinases
Briefly: MMP inhibition, thiopeptolide substrate assay. In kind it is biochemical. To be noted: thiopeptolide substrate Ac-Pro-Leu-Gly-thioester-Leu-Leu-Gly-OEt; catalytic domain. The protocol: as §1

Data set [3] has as its target T3, MMP-1FL (collagenase-1 full length enzyme) (Homo sapiens, UniProt P03956).
T3 construct: MMP-1FL (collagenase-1 full length enzyme)
T3 sequence (P03956 100-469): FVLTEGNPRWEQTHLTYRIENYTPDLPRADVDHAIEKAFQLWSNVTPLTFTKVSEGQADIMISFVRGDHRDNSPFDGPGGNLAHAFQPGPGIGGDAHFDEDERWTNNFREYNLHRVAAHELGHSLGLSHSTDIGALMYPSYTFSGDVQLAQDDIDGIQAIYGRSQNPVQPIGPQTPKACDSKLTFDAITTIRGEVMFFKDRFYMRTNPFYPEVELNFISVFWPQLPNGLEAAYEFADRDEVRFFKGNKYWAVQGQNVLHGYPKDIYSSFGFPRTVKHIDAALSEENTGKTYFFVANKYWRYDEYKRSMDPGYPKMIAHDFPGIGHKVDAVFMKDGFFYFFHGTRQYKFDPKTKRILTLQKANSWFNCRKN
Briefly: MMP inhibition, thiopeptolide substrate assay. In kind it is biochemical. To be noted: thiopeptolide substrate Ac-Pro-Leu-Gly-thioester-Leu-Leu-Gly-OEt. The method, then:
as §1

The target of data set [4] is MMP-2CD (gelatinase A catalytic domain) (Homo sapiens, UniProt P08253). Briefly: MMP inhibition, thiopeptolide substrate assay. To be noted: thiopeptolide substrate Ac-Pro-Leu-Gly-thioester-Leu-Leu-Gly-OEt. In kind it is biochemical. The protocol:
as §1

Data set [5] has as its target T4, MMP-2FL (gelatinase A full length enzyme) (Homo sapiens, UniProt P08253).
T4 construct: MMP-2FL (gelatinase A full length enzyme)
T4 sequence (P08253 110-660): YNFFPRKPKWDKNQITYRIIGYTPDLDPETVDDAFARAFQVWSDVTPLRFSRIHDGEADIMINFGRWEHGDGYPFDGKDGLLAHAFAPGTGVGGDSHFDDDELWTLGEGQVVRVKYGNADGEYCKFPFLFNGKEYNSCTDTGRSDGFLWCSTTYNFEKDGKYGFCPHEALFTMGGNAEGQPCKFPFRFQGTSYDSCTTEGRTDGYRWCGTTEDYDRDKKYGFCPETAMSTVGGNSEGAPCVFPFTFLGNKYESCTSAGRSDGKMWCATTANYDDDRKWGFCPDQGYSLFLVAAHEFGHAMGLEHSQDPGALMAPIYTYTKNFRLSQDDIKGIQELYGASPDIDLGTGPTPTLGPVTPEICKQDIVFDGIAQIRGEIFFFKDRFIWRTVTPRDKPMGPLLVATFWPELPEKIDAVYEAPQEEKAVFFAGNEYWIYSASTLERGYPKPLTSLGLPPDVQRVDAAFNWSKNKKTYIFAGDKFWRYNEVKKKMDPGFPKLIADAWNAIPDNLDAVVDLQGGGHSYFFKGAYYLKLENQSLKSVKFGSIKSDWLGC
Briefly: MMP inhibition, thiopeptolide substrate assay. In kind it is biochemical. Particulars: thiopeptolide substrate Ac-Pro-Leu-Gly-thioester-Leu-Leu-Gly-OEt. The protocol: as §1

The target of data set [6] is T5, MMP-3CD (stromelysin-1 catalytic domain) (Homo sapiens, UniProt P08254).
T5 construct: MMP-3CD (stromelysin-1 catalytic domain)
Briefly: MMP inhibition, thiopeptolide substrate assay. Particulars: thiopeptolide substrate Ac-Pro-Leu-Gly-thioester-Leu-Leu-Gly-OEt. In kind it is biochemical. The protocol: as §1

In data set [7] the target is T6, MMP-7FL (matrilysin full length enzyme) (Homo sapiens, UniProt P09237).
T6 construct: MMP-7FL (matrilysin full length enzyme)
T6 sequence (P09237 95-267): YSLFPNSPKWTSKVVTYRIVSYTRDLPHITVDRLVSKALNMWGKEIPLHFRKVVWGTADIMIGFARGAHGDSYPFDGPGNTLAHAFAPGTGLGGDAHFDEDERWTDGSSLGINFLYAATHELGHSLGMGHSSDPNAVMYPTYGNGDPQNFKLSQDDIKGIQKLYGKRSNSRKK
Briefly: MMP inhibition, thiopeptolide substrate assay. Particulars: thiopeptolide substrate Ac-Pro-Leu-Gly-thioester-Leu-Leu-Gly-OEt. The class given is biochemical. The protocol:
as §1

Data set [8] addresses T7, MMP-9-FL (gelatinase B full length enzyme) (Homo sapiens, UniProt P14780).
T7 construct: MMP-9-FL (gelatinase B full length enzyme)
Briefly: MMP inhibition, thiopeptolide substrate assay. In kind it is biochemical. To be noted: thiopeptolide substrate Ac-Pro-Leu-Gly-thioester-Leu-Leu-Gly-OEt. The method, then:
as §1

Broadly, the IC50 is the midpoint of a concentration-inhibition curve. Higher therefore signals a need for much substance. What is called melting point is the temperature of the solid-liquid transition.

T5 sequence (P08254 100-272 limits assumed): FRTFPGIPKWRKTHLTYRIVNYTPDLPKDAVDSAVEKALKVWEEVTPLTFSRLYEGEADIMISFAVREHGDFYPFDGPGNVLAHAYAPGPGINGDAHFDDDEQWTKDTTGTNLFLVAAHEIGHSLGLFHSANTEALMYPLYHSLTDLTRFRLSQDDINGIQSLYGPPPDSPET
Chain of MMP-2CD (gelatinase A catalytic domain) (P08253 with tags, fused parts or gaps DEL222-396): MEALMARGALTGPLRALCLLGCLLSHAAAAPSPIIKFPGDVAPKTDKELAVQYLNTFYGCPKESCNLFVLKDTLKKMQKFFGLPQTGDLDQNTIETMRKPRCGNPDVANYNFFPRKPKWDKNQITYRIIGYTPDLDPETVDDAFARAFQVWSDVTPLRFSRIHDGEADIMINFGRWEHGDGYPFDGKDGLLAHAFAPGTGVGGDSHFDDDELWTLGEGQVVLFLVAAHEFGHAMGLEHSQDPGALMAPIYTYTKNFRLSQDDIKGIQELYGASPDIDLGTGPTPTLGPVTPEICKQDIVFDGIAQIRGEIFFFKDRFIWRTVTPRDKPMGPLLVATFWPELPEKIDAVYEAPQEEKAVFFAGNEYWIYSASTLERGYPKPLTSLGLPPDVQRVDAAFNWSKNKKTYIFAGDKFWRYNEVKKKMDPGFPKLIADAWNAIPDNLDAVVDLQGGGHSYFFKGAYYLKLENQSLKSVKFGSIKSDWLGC
T7 sequence (P14780 94-707): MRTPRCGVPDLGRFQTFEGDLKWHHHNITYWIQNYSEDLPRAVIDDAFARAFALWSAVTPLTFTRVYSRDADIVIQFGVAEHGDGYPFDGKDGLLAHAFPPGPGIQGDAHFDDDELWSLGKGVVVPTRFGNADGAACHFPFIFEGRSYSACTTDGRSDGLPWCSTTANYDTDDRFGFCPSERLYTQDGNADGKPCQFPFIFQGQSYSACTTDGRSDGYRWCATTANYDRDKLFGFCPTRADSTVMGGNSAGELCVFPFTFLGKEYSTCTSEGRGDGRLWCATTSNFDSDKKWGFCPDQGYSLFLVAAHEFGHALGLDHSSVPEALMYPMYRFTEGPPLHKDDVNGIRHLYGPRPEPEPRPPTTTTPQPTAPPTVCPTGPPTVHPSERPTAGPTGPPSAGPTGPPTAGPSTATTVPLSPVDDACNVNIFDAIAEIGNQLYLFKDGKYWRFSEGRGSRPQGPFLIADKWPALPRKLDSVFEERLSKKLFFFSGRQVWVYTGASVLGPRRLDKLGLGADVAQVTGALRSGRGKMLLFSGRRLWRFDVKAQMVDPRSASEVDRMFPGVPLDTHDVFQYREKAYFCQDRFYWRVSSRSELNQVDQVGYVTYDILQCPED

Regarding `CN1C(=O)N(CC(CC(=O)c2ccc3c4c(oc3c2)CCCC4)C(=O)O)C(=O)C1(C)C` (stereo not shown) [Example 3, 4-Oxo-4-(6,7,8,9-tetrahydro-dibenzofuran-3-yl)-2-(3,4,4-trimethyl-2,5-dioxo-imidazolidin-1-ylmethyl)-butyric acid], the half-inhibitory concentration (IC50) in data set [1] is 1.42 µM; in data set [2] it was 2 µM; in [3], 31 µM; in data set [4], 0.0585 µM; in data set [5] it was 0.945 µM; in [6] it was 0.315 µM. Further, the figures for the 50% inhibitory concentration (IC50) in [7] and in data set [8] were 86 µM and 14 µM, respectively.

With `O=C(CC(CCCc1ccccc1)C(=O)O)c1ccc2c3c(oc2c1)CCCC3` (stereo not shown) [Example 2, 2-[2-Oxo-2-(6,7,8,9-tetrahydro-dibenzofuran-3-yl)-ethyl]-5-phenyl-pentanoic acid], the IC50 in data set [1] stood at 9.7 µM; in [2], 0.82 µM; in data set [3], 67 µM; in data set [4], 0.096 µM; in [5], 0.445 µM; in data set [6], 0.13 µM. In [7], this compound came in with an IC50 of 84 µM.

The compound `O=C(O)CCC(=NO)c1ccc2c3c(oc2c1)CCCC3` [Example 1, 4-Hydroxyimino4-(6,7,8,9-tetrahydro-dibenzofuran-3-yl)-butyric acid] displayed a melting point of 164 °C. For the same compound, the IC50 in data set [1] came out at 1.21 µM. In data set [2], this compound returned a half-inhibitory concentration (IC50) of 0.24 µM. This compound also returned a 50% inhibitory concentration (IC50) in data set [4] of 0.0183 µM. Further, the IC50 in [5] came to 0.0595 µM. This compound displayed an IC50 in data set [6] of 0.114 µM. This compound yielded a half-maximal inhibitory concentration (IC50) in data set [8] of 32 µM.
